Test: Pharmacokinetic parameter (Tmax) was estimated
Type: ADME, organism-based
Details: rat, in vivo

Tmax: 6 min
Compound: CCC1=C(C)C(=O)N/C1=C\c1[nH]c(C)c(CCS(=O)(=O)O)c1C
